# In patent US20220274979A1 (Bayer Pharma Aktiengesellschaft, priority 2018, published 2022):
# Molecular target: T1, Epidermal Growth Factor Receptor (EGFR) (Homo sapiens, UniProt P00533)
# T1 construct: purchased Sigma-Aldrich E3641
# Assay: EGFR kinase assay (TR-FRET)
# Type: biochemical
# Conditions: 10 μM ATP; read-out: EGFR kinase inhibition IC50
# Text: EGFR inhibitory activity of compounds of the present invention was quantified employing the TR-FRET based EGFR assay as described in the following paragraphs.
# Epidermal Growth Factor Receptor (EGFR) affinity purified from human carcinoma A431 cells (Sigma-Aldrich, # E3641) was used as kinase. As substrate for the kinase reaction the biotinylated peptide biotin-Ahx-[…] (SEQ ID NO: 8, C-terminus in amid form) was used which can be purchased e.g. form the company Biosyntan GmbH (Berlin-Buch, Germany).
# For the assay 50 nL of a 100 fold concentrated solution of the test compound in DMSO was pipetted into a black low volume 384 well microtiter plate (Greiner Bio-One, Frickenhausen, Germany), 2 μL of a solution of EGFR in aqueous assay buffer [50 mM Hepes/HCl pH 7.0, 1 mM MgCl2, 5 mM MnCl2, 0.5 mM activated sodium ortho-vanadate, 0.005% (v/v) Tween-20]were added and the mixture was incubated for […] at 22° C. to allow pre-binding of the test compounds to the enzyme before the start of the kinase reaction. Then the kinase reaction was started by the addition of 3 μL of a solution of adenosine-tri-phosphate (ATP, 16.7 μM=>final conc. in the 5 μL assay volume is 10 μM) and substrate (1.67 μM =>final conc. in the 5 μL assay volume is 1μM) in assay buffer and the resulting mixture was incubated for a reaction time of […] at 22° C. The concentration of EGFR was adjusted depending of the activity of the enzyme lot and was chosen appropriate to have the assay in the linear range, typical concentration were about 3 U/ml. The reaction was stopped by the addition of 5 μl of a solution of HTRF detection reagents (0.1 μM streptavidine-XL665 [Cis Biointernational]and 1 nM PT66-Tb-Cryptate, an terbium-cryptate labelled anti-phospho-tyrosine antibody from Cis Biointernational [instead of the PT66-Tb-cryptate PT66-Eu-Chelate from Perkin Elmer can also be used]) in an aqueous EDTA-solution (80 mM EDTA, 0.2% (w/v) bovine serum albumin in 50 mM HEPES pH 7.5).
# The resulting mixture was incubated 1 h at 22° C. to allow the binding of the biotinylated phosphorylated peptide to the streptavidine-XL665 and the PT66-Eu-Chelate. Subsequently the amount of phosphorylated substrate was evaluated by measurement of the resonance energy transfer from the PT66-Tb-Cryptate to the streptavidine-XL665. Therefore, the fluorescence emissions at 620 nm and 665 nm after excitation at 337 nm were measured in a HTRF reader, e.g. a Pherastar (BMG Labtechnologies, Offenburg, Germany) or a Viewlux (Perkin-Elmer). The ratio of the emissions at 665 nm and at […] was taken as the measure for the amount of phosphorylated substrate.
# T1 sequence (P00533 25-1210): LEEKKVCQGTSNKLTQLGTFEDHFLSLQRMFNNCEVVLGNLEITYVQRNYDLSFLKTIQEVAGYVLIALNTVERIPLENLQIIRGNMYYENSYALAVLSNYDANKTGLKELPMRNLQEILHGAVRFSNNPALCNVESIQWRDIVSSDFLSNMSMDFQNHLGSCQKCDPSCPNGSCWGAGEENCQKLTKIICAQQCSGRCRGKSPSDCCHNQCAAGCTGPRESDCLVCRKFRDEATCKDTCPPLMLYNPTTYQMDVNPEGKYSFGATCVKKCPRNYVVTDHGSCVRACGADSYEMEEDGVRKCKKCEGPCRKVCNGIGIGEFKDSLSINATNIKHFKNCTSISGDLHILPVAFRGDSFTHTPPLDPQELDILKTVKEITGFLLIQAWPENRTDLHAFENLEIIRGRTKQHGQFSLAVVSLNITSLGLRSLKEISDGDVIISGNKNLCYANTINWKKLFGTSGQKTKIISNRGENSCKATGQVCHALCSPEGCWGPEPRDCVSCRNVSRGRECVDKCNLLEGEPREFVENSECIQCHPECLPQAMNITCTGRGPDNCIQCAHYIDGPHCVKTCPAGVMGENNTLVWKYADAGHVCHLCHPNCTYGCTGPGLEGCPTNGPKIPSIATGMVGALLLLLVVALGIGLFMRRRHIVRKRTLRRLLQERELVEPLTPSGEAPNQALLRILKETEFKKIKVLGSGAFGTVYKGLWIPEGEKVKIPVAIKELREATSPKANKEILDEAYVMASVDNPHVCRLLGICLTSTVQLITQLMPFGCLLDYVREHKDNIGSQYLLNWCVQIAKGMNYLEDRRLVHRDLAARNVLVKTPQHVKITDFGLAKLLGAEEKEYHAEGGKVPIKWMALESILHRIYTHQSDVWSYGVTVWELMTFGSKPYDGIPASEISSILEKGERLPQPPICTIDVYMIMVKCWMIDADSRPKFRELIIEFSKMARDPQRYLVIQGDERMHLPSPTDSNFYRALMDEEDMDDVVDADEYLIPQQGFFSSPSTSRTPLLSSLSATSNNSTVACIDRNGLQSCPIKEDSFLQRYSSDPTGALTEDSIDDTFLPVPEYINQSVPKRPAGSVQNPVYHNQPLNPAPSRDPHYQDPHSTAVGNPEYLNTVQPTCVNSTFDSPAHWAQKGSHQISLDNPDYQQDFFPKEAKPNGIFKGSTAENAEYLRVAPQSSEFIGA
row,Structure (SMILES),IC50 [µM]
1,"CCOc1cc2c(NC(C)c3cccc4sccc34)nc(C)nc2cn1 (centres unmarked) [Example 3, N-[1-(1-benzothiophen-4-yl)ethyl]-6-ethoxy-2-methylpyrido[3,4-d]pyrimidin-4-amine]",> 20
2,Cc1nc(N[C@H](C)c2ccc(F)cc2)c2cc(F)ncc2n1 [Example 9],> 20
3,"COCCOc1ncc2nc(C)nc(N[C@H](C)c3cccc(Br)c3)c2n1 [Example 26, N-[(1R)-1-(3-bromophenyl)ethyl]-6-(2-methoxyethoxy)-2-methylpyrimido[5,4-d]pyrimidin-4-amine]",> 20
4,"Cc1nc(NC(C)c2ccc(-c3ccccc3CN(C)C)s2)c2cc(OC3CCS(=O)(=O)CC3)ncc2n1 (centres unmarked) [Example 67, N-[1-(5-{2-[(dimethylamino)methyl]phenyl}thiophen-2-yl)ethyl]-6-[(1,1-dioxidotetrahydro-2H-thiopyran-4-yl)oxy]-2-methylpyrido[3,4-d]pyrimidin-4-amine]",> 20
5,"Cc1nc(N[C@H](C)c2cccc(Br)c2)c2cc(Oc3cccc(C4=NCCN4C)c3)ncc2n1 [Example 41, N-[(1R)-1-(3-bromophenyl)ethyl]-2-methyl-6-[3-(1-methyl-4,5-dihydro-1H-imidazol-2-yl)phenoxy]pyrido[3,4-d]pyrimidin-4-amine]",> 20
6,"Cc1nc(N[C@H](C)c2cccc(Br)c2)c2cc(F)ncc2n1 [Example 34, N-[(1R)-1-(3-bromophenyl)ethyl]-6-fluoro-2-methylpyrido[3,4-d]pyrimidin-4-amine]",> 20
7,"Cc1nc(NC(C)c2ccc(-c3ccccc3CN(C)C)s2)c2cc(Oc3cccc(O)c3)ncc2n1 (centres unmarked) [Example 52, 3-[(4-{[1-(5-{2-[(dimethylamino)methyl]phenyl}thiophen-2-yl)ethyl]amino}-2-methylpyrido[3,4-d]pyrimidin-6-yl)oxy]phenol]",> 20
8,"Cc1nc(NC(C)c2ccc(-c3ccccc3CN(C)C)s2)c2cc(N3CC(NC(=O)Nc4ccccc4)C3)ncc2n1 (centres unmarked) [Example 96, 1-[1-(4-{[1-(5-{2-[(dimethylamino)methyl]phenyl}thiophen-2-yl)ethyl]amino}-2-methylpyrido[3,4-d]pyrimidin-6-yl)azetidin-3-yl]-3-phenylurea]",> 20
9,"Cc1nc(NC(C)c2ccc(-c3ccccc3CN(C)C)s2)c2cc(N3CC(NC(=O)CCCn4c(-c5ccccn5)nc(C)c4C)C3)ncc2n1 (centres unmarked) [Example 87, N-[1-(4-{[1-(5-{2-[(dimethylamino)methyl]phenyl}thiophen-2-yl)ethyl]amino}-2-methylpyrido[3,4-d]pyrimidin-6-yl)azetidin-3-yl]-4-[4,5-dimethyl-2-(pyridin-2-yl)-1H-imidazol-1-yl]butanamide]",> 20
10,"CCOc1cc2c(NC(C)c3ccc(-c4ccccc4CN(C)C)s3)nc(C)nc2cn1 (centres unmarked) [Example 63, N-[1-(5-{2-[(dimethylamino)methyl]phenyl}thiophen-2-yl)ethyl]-6-ethoxy-2-methylpyrido[3,4-d]pyrimidin-4-amine]",> 20
11,"CC(=O)NC1CCN(c2cc3c(N[C@H](C)c4cccc(Br)c4)nc(C)nc3cn2)C1 (mixture of isomers) [Example 42, N-[1-(4-{[(1R)-1-(3-bromophenyl)ethyl]amino}-2-methylpyrido[3,4-d]pyrimidin-6-yl)pyrrolidin-3-yl]acetamide]",> 20
12,"CNCc1ccccc1-c1ccc(C(C)Nc2nc(C)nc3cnc(Oc4ccc(N5CCCC5=O)cc4)cc23)s1 (centres unmarked) [Example 38, 1-{4-[(2-methyl-4-{[1-(5-{2-[(methylamino)methyl]phenyl}thiophen-2-yl)ethyl]amino}pyrido[3,4-d]pyrimidin-6-yl)oxy]phenyl}pyrrolidin-2-one]",> 20
13,"Cc1nc(N[C@H](C)c2ccc(F)cc2)c2cc(OCC3CCOCC3)ncc2n1 [Example 11, N-[1R)-1-(4-fluorophenypethyl]-2-methyl-6-(tetrahydro-2H-pyran-4-ylmethoxy)-pyrido[3,4-d]pyrimidin-4-amine]",> 20
14,"Cc1nc(N[C@H](C)c2cccc(Br)c2)c2cc(Oc3cccc(O)c3)ncc2n1 [Example 40, 3-[(4-{[(1R)-1-(3-bromophenyl)ethyl]amino}-2-methylpyrido[3,4-d]pyrimidin-6-yl)oxy]phenol]",> 20
15,"CCOc1cc2c(N[C@H](C)c3cccc(S(C)(=O)=O)c3)nc(C)nc2cn1 [Example 7, 6-ethoxy-2-methyl-N-{(1R)-1-[3-(methylsulfonyl)phenyl]ethyl}pyrido[3,4-d]pyrimidin-4-amine]",> 20
16,"Cc1nc(NC(C)c2ccc(-c3ccccc3CN(C)C)s2)c2cc(NCC3CCNC(=O)C3)ncc2n1 (centres unmarked) [Example 86, 4-{[(4-{[1-(5-{2-[(dimethylamino)methyl]phenyl}thiophen-2-yl)ethyl]amino}-2-methylpyrido[3,4-d]pyrimidin-6-yl)amino]methyl}piperidin-2-one]",> 20

row,Structure (SMILES),IC50 [µM]
1,"Cc1nc(N[C@H](C)c2cccc(Br)c2)c2cc(N3CCN(Cc4cccnc4)CC3)ncc2n1 [Example 43, N-[(1R)-1-(3-bromophenyl)ethyl]-2-methyl-6-[4-(pyridin-3-ylmethyl)piperazin-1-yl]pyrido[3,4-d]pyrimidin-4-amine]",> 20
2,"Cc1nc(N[C@H](C)c2cccc(Br)c2)c2nc(Oc3ccccc3)ccc2n1 [Example 32, N-[(1R)-1-(3-bromophenyl)ethyl]-2-methyl-6-phenoxypyrido[3,2-d]pyrimidin-4-amine]",> 20
3,"Cc1nc(NC(C)c2ccc(-c3ccccc3CN(C)C)s2)c2cc(OCCCO)ncc2n1 (centres unmarked) [Example 76, 3-[(4-{[1-(5-{2-[(dimethylamino)methyl]phenyl}thiophen-2-yl)ethyl]amino}-2-methylpyrido[3,4-d]pyrimidin-6-yl)oxy]propan-1-ol]",> 20
4,"Cc1nc(NC(C)c2ccc(-c3ccccc3CN(C)C)s2)c2cc(N3CC(NC(=O)Cc4ccccc4)C3)ncc2n1 (centres unmarked) [Example 89, N-[1-(4-{[1-(5-{2-[(dimethylamino)methyl]phenyl}thiophen-2-yl)ethyl]amino}-2-methylpyrido[3,4-d]pyrimidin-6-yl)azetidin-3-yl]-2-phenylacetamide]",> 20
5,"Cc1nc(NC(C)c2ccc(-c3ccccc3CO)s2)c2cc(F)ncc2n1 (centres unmarked) [Example 68, [2-(5-{1-[(6-fluoro-2-methylpyrido[3,4-d]pyrimidin-4-yl)amino]ethyl}thiophen-2-yl)phenyl]methanol]",> 20
6,"COc1cc2c(N[C@H](C)c3cccc(Br)c3)nc(C)nc2cn1 [Example 57, N-[(1R)-1-(3-bromophenyl)ethyl]-6-methoxy-2-methylpyrido[3,4-d]pyrimidin-4-amine]",> 20
7,"COCCOc1ccc2nc(C)nc(N[C@H](C)c3cccc(Br)c3)c2n1 [Example 30, N-[(1R)-1-(3-bromophenyl)ethyl]-6-(2-methoxyethoxy)-2-methylpyrido[3,2-d]pyrimidin-4-amine]",> 20
8,Cc1nc(N[C@H](C)c2cccc(Br)c2)c2nc(N(C)C)ccc2n1 [Example 31],> 20
9,"COc1cc2c(NC(C)c3cccc4c3cnn4C)nc(C)nc2cn1 (centres unmarked) [Example 14, 6-methoxy-2-methyl-N-[1-(1-methyl-1H-indazol-4-yl)ethyl]pyrido[3,4-d]pyrimidin-4-amine]",> 20
10,Cc1nc(N[C@H](C)c2ccc(F)cc2)c2cc(OC(C)C)ncc2n1 [Example 15],> 20
11,"Cc1nc(N[C@H](C)c2cccc(Br)c2)c2nc(Oc3ccccc3)ncc2n1 [Example 25, N-[(1R)-1-(3-bromophenyl)ethyl]-2-methyl-6-phenoxypyrimido[5,4-d]pyrimidin-4-amine]",> 20
12,"Cc1nc(N[C@H](C)c2cccc(Br)c2)c2cc(OCCN(C)C)ncc2n1 [Example 78, N-[(1R)-1-(3-bromophenyl)ethyl]-6-[2-(dimethylamino)ethoxy]-2-methylpyrido[3,4-d]pyrimidin-4-amine]",> 20
13,Cc1nc(N[C@H](C)c2cccc(Br)c2)c2nc(N(C)C)ncc2n1 [Example 21],> 20
14,"CCOc1cc2c(N[C@H](C)c3ccc(Br)cc3)nc(C)nc2cn1 [Example 13, N-[(1R)-1-(4-bromophenyl)ethyl]-6-ethoxy-2-methylpyrido[3,4-d]pyrimidin-4-amine]",> 20
15,"CCOc1cc2c(N[C@H](C)c3ccc(C#N)cc3)nc(C)nc2cn1 [Example 18, 4-{(1R)-1-[(6-ethoxy-2-methylpyrido[3,4-d]pyrimidin-4-yl)amino]ethyl}benzonitrile]",> 20
16,Cc1nc(N[C@H](C)c2cccc(Br)c2)c2cc(NCCN3CCOCC3)ncc2n1 [Example 39],> 20
